The values that follow come from patent US9427426B2 (priority 2008, dated 2016).

Read-outs that look alike come from different tables or passages of the source.

In one data set the test system is rat. Particulars: cited from earlier work.
For data set [1] the following is noted: cited from earlier work; for solubility in water, in words: water (NAC: at 20° C.).
In data set [2] the test system is rats intoxicated with lead (lead acetate). Nature of the data set: Example 1: erdosteine per os vs NAC per os in rats intoxicated with lead. It is filed as in vivo, Wistar rats. Conditions: erdosteine 875 mg/kg or NAC 500 mg/kg per os once a day for 7 days. The method, then: (§1) 3. […] NAC has been mixed with bidistilled water, the resulting solution being administered in volume of 10 ml/kg.
(§2) 4. […] Erdosteine has been mixed with bidistilled water and sodium hydrogen carbonate equimolar, the resulting solution being administered in volume of 10 ml/kg.
(§3) Mortality has been recorded. […] Few animals have been collected urine eliminated spontaneously for Pb—Hg analysis. Animals have been sacrificed under general anesthesia with ether. 6 animals of each group (3 males and 3 females) have been randomly selected for macroscopic and microscopic anatomic-pathological examination.

For data set [3], the system named is rats intoxicated with mercury (mercury chloride). Nature of the data set: Example 1: erdosteine per os vs NAC per os in rats intoxicated with mercury. Conditions: erdosteine 875 mg/kg or NAC 500 mg/kg per os once a day for 7 days. It is filed as in vivo, Wistar rats. How it is done:
as §1, §2, §3

Data set [4] relates to rats intoxicated with lead (lead acetate). Briefly: Example 2: erdosteine i.v. vs NAC i.v. in rats intoxicated with lead. It is filed as in vivo, Wistar rats. How it is done: (§4) The animals have been randomly divided in 11 lots.
(§5) 3. […] NAC has been dissolved in bidistilled water.
(§6) 4. […] Erdosteine has been solubilized in bidistilled water and sodium hydrogen carbonate equimolar, the resulting solution being administered in volume of 10 ml/kg. Preliminarily we tested the different molar ratios erdosteine/sodium hydrogen carbonate in a range between 0.5:1 and 1.5:1 and the volume to be solubilized. […] Animals Monitoring:
as §3

Data set [5] deals with rats intoxicated with mercury (mercury chloride). Briefly: Example 2: erdosteine i.v. vs NAC i.v. in rats intoxicated with mercury. It is filed as in vivo, Wistar rats. The method, then: as §4, §5, §6, §3
Data set [6] deals with rats intoxicated with paracetamol. Briefly: Example 4: erdosteine i.v. vs NAC i.v. in rats intoxicated with paracetamol. It is filed as in vivo, Wistar rats.
Excerpt: Experiment has been carried on in parallel with experiment of example 3 and results of animals not intoxicated not treated (lot1) have been used as reference.
as §5
Animals have been monitored as described in example 3.
Mortality has been recorded.

[7] abbreviates: Pb intoxicated (lead acetate 4665 mg/kg per os), 30 animals/lot.
[8] abbreviates: survivors after 7 days, Pb intoxicated.
[9] abbreviates: Hg intoxicated (mercury chloride 42 mg/kg per os), 30 animals/lot.
[10] abbreviates: survivors after 7 days, Hg intoxicated.
Setting [11] is: Pb intoxicated (lead acetate 4665 mg/kg per os), ERDO1 = erdosteine 350 mg/kg i.v. or NAC 114 mg/kg i.v. once a day for 7 days, 35 animals/lot.
Where [12] appears, read: Pb intoxicated, ERDO1 = erdosteine 350 mg/kg i.v. or NAC 114 mg/kg i.v. once a day for 7 days.
The mark [13] stands for this setting: survivors after 7 days, Pb intoxicated, ERDO1 = erdosteine 350 mg/kg i.v. or NAC 114 mg/kg i.v. once a day.
The mark [14] stands for this setting: Hg intoxicated (mercury chloride 42 mg/kg per os), ERDO1 = erdosteine 350 mg/kg i.v. or NAC 114 mg/kg i.v. once a day for 7 days, 35 animals/lot.
Where [15] appears, read: Hg intoxicated, ERDO1 = erdosteine 350 mg/kg i.v. or NAC 114 mg/kg i.v. once a day for 7 days.
[16] abbreviates: survivors after 7 days, Hg intoxicated, ERDO1 = erdosteine 350 mg/kg i.v. or NAC 114 mg/kg i.v. once a day.
Where [17] appears, read: paracetamol […] per os, erdosteine 350 mg/kg i.v. or NAC 114 mg/kg i.v. once a day for 7 days, 30 animals/lot.
Where [18] appears, read: paracetamol intoxicated, erdosteine 350 mg/kg i.v. or NAC 114 mg/kg i.v., 7 days.
Setting [19] is: survivors at 7 days, paracetamol intoxicated, erdosteine 350 mg/kg i.v. or NAC 114 mg/kg i.v.

Take Lead acetate trihydrate: in the data set on rat (per os, rat where given), the LD50 per os is 4665 mg/kg.

`[Cl][Hg][Cl]` [mercury chloride]: the LD50 per os in the data set with rat (per os, rat where given) is reported as 42 mg/kg. In addition, the solubility in water in data set [1] (water at 20° C.) is 7.4 g/100 ml.

On to `OCC(S)CS` (centres unmarked) [Dimercaprol, 2,3,Dimercapto1-propanol], for which the LD50 i.v. with rat (rat, i.v.) is recorded as 105 mg/kg. In addition, the “solubility in water, in words” value in data set [1] is “hardly soluble”.

In data set [2] (setting [7]), `CC(=O)N[C@@H](CS)C(=O)O` [NAC, N-Acetylcysteine] gave a Mortality in percent of 30% and a Mortality total of 9. The “Anatomical pathology: lesions (macroscopic and microscopic examination)” value in data set [2] (Pb intoxicated) is reported as “did not improve lesions”. In data set [2] (Pb intoxicated, GS MS Varian 4100), the “Pb in urine, Pb mean values” turned out to be 13.2 mg/L. In data set [2] (setting [8]), the Creatinine mean values was 0.66 ^3 mK/dl, the Haematocrit mean values is 41.42^3, the Haemoglobin mean values is 13.58^3 g/dl and the Leucocytes mean values is reported as 6.82^3. Further, in data set [2] (setting [8]), the Urea mean values is given as 104.15 ^3 mg/dl, the “Uric acid mean value” was 2.36 ^1 mg/dl and the erythrocytes mean values is 6.55^3 *10^6/mm^3. Besides, in data set [3] (setting [9]), the Mortality in percent is listed as 33.3% and the Mortality total is 10^2^. Also, the “Anatomical pathology: lesions (macroscopic and microscopic examination)” value in data set [3] (Hg intoxicated) is on record as “less important lesions”. The “Hg in urine mean values” in data set [3] (Hg intoxicated, GS MS Varian 4100) was 11.5 mg/L. Moreover, in data set [3] (setting [10]), the Creatinine mean values was 0.56 ^3 mK/dl, the Haematocrit mean values is 41.50^3, the Haemoglobin mean values is reported as 13.58^3 g/dl and the Leucocytes mean values is reported as 6.72^3. Besides, in data set [3] (setting [10]), the Urea mean values was 85.45 ^3 mg/dl, the “Uric acid mean value” is 2.38 ^1 mg/dl and the erythrocytes mean values is given as 6.92^3 *10^6/mm^3. For the same molecule, in data set [4] (setting [11]), the Mortalitaty total is given as 28 ^3 and the Mortality in percent is on record as 80%. Besides, in data set [4] (setting [12]), the “Anatomical pathology: lesions” value is listed as “did not improve lesions” and the “Pb in urine, Pb mean values” stood at 12.9 mg/L. For the same molecule, in data set [4] (setting [13]), the Creatinine mean values was 0.78 ^4 mK/dl, the Haematocrit mean values is on record as 35.48 ^3, the Haemoglobin mean values is 15.86 ^3 g/dl and the Leucocytes mean values is 16.36 ^3. Moreover, in data set [4] (setting [13]), the Urea mean values was 80.98 ^4 mg/dl, the “Uric acid mean value” is listed as 2.13 ^4 mg/dl and the erythrocytes mean values was 6.93 ^3 *10^6/mm^3. Also, in data set [5] (setting [14]), the Mortalitaty total is 30 ^3 and the Mortality in percent was 85.7%. In data set [5] (setting [15]), the “Anatomical pathology: lesions” value was “least severe damages” and the “Hg in urine mean values” came out at 13.9 mg/L. In addition, in data set [5] (setting [16]), the Creatinine mean values was 1.06 ^4 mK/dl, the Haematocrit mean values is reported as 38.97 ^3, the Haemoglobin mean values is 14.57 ^3 g/dl and the Leucocytes mean values was 10.5 ^3. In addition, in data set [5] (setting [16]), the Urea mean values is 79.52 ^4 mg/dl, the “Uric acid mean value” is 2.02 ^4 mg/dl and the erythrocytes mean values is recorded as 6.76 ^3 *10^6/mm^3. In data set [6] (setting [17]), the Mortality percentual turned out to be 20% and the Total mortality is reported as 6/30. In addition, the “Renal aggression (urine summary), in words” value in data set [6] (paracetamol intoxicated, erdosteine 350 mg/kg i.v. or NAC 114 mg/kg i.v.) is on record as “antagonized”. Besides, in data set [6] (setting [18]), the “Urine summary: Bil.” value stood at 3 mg/dL, the “Urine summary: Chet” value is “neg”, the “Urine summary: Density” value turned out to be 1015 and the “Urine summary: Erythrocyte” value came out at 25 µL⁻¹. Besides, in data set [6] (setting [18]), the “Urine summary: Glucose” value is listed as “neg”, the “Urine summary: Leuc” value turned out to be 25 µL⁻¹, the “Urine summary: Prot.” value turned out to be 75 mg/dL and the “Urine summary: UBG” value is 1 mg/dL. Also, in data set [6] (setting [18]), the “Urine summary: pH” value worked out at 6.8. Besides, in data set [6] (setting [19]), the ALT is 206.6^1, the AST is listed as 42.6^2, the HCT is given as 41.7^1 and the PLT was 550.8^1. In data set [6] (setting [19]), the RBC was 7.20^1, the Urea was 74.76^1 and the Uric acid is listed as 2.574^1. Further, the LD50 i.v. in the data set with rat (rat, in vivo, iv) is given as 1140 mg/kg. The LD50 per os in the data set on rat (rat, in vivo) is recorded as 5050 mg/kg. The “solubility in water, in words” value in data set [1] is reported as “slightly soluble”.
